{"source": "patent US6479454B1", "about": "“Antimicrobial compositions and methods containing hydrogen peroxide and octyl amine oxide” (Ecolab Inc., priority 2000, dated 2002)", "key": {"Pseudomonas aeruginosa": {"tested_on": "Pseudomonas aeruginosa", "test": "Minimal Bactericidal Concentration (MBC), Ecolab S.O.P. Method MS009 (A.O.A.C. Method 960.09)", "assay_type": "cell-based", "experimental": "The term Minimal Bactericidal Concentration is used in the present invention to mean a 5 log reduction in microbe count.\nAn experiment was conducted to determine the Minimal Bactericidal Concentration (MBC) of octyldimethylamine oxide alone, hydrogen peroxide alone and two mixtures of octyldimethylamine oxide with hydrogen peroxide against Pseudomonas aeruginosa. Experiments were conducted using standard bacteriological techniques, specifically Ecolab Microbiological Services S.O.P. Method MS009 (reference to A.O.A.C. Method 960.09). […] The 50%/50% relative composition of amine oxide:hydrogen peroxide has a pH of 7.4 and an oxidation potential of 250 mV when diluted to 1.7% total oxidizer."}, "Salmonella javiana": {"tested_on": "Salmonella javiana", "test": "Antimicrobial activity (log reduction) on a tomato surface", "assay_type": "cell-based", "experimental": "A second experiment was conducted to determine the synergistic effects of mixing an amine oxide, peracetic acid and hydrogen peroxide. Combinations of peracetic acid and hydrogen peroxide were measured in the presence and absence of a tetradecyl-dimethylamine oxide for antimicrobial activity against Salmonella javiana. Testing was performed on a tomato surface."}}, "data": [{"smiles": "OO", "note": "[0/100, hydrogen peroxide]", "values": [{"measurement": "MBC ppm peroxide", "setting": "Pseudomonas aeruginosa; MBC = 5 log reduction in microbe count, expressed as hydrogen peroxide concentration", "result": ">2,000 ppm"}]}, {"smiles": "CCCCCCCC[N+](C)(C)[O-]", "note": "[100/0, octyldimethylamine oxide]", "values": [{"measurement": "concentration required to obtain MBC", "setting": "Pseudomonas aeruginosa; MBC = 5 log reduction", "result": "greater than 2000 parts per million"}, {"measurement": "MBC", "setting": "Pseudomonas aeruginosa; Pseudomonas aeruginosa, MBC = 5 log reduction in microbe count, expressed as octyldimethylamine oxide concentration, read-out: MBC ppm amine oxide", "result": "> 2000", "unit": "µg/mL"}]}, {"smiles": "CCCCCCCCCCCCCC[N+](C)(C)[O-]", "note": "[Amine Oxide Alone, tetradecyl-dimethylamine oxide]", "values": [{"measurement": "Log Reduction (S. Javiana)", "setting": "Salmonella javiana; ppm of each component as given in the table row", "result": "<0.2"}, {"measurement": "antimicrobial activity against S. javiana (in words)", "setting": "Salmonella javiana; text summary of Table II", "result": "fairly ineffective"}]}]}
